Structures can show the parent of a compound that is named as a salt.
Columns and labels:
[1] = tested on: loperamide-induced experimental constipation; test: Colon transit time (CTT), difference of WGT and OCT, loperamide-induced experimental constipation; format: in vivo, human; conditions: for colon transit time after pre-treatment with loperamide: all 15 subjects
Experimental: (§1) Pharmacokinetics of methylnaltrexone and its effects on loperamid-induced experimental constipation were evaluated in a randomized, controlled, five-period, cross-over study with 7 days wash-out between the study periods. […] The time of methylnaltrexone administration was defined to be time zero. For control of intestinal transit times in absence of loperamide and methylnaltrexone, 200 ml of pure apple juice and a methylnaltrexone placebo capsule were given at the respective times (Control). […] Oro-cecal transit time (OCT) was assessed using the sulfasalazine/sulfapyridine method. For that, 500 mg immediate-release sulfasalazine (Azulfidine®, Pharmacia, Germany) were swallowed with 200 ml table water 2 h after administration of the respective methylnaltrexone study medication to avoid competitive interactions during absorption. The time of first appearance of sulfapyridine in serum was defined to be the OCT (cut-off: 100 μg/ml serum). Whole gut transit time (WGT) was evaluated using a radio-opaque marker method. For that, Colon Transit' capsules (Medical Instruments Corporation GmbH, Herford, Germany) were swallowed 24, 12 and 1 h before time zero using the 200 ml apple juice for loperamide dosing. Each capsule contains 10 radio-opaque markers of identical shape (e.g. triangles). A Colon Transit™ batch consists of capsules with markers of different shape (e.g. triangles, circles, rings etc.). Our subjects were willing and compliant for sampling stool in single portions immediately after feeling urge without suppressing defecation using tightly closable containers. Then, the number of radio-opaque markers with identical shape was counted in the stool portions after X-ray imaging (Philips Optimus, Philips Healthcare, Hamburg, Germany) using the Agfa PACS Workstation Impact-Version 5.2 (Agfa-Healthcare, Cologne, Germany). From the time of administration of the 3×10 radio-opaque markers (3 Colon Transit™ capsules) and the time of their appearance in different stool portions could be reliably concluded on WGT as described below. Colon transit time (CTT) was derived from the difference of WGT and OCT.
The CTT was evaluated from the difference of WGT and OCT.

[2] = tested on: loperamide-induced experimental constipation; test: Oro-cecal transit time (OCT), sulfasalazine/sulfapyridine method, loperamide-induced experimental constipation; format: in vivo, human
Experimental: (§2) The clinical study was performed in 15 German white subjects (11 males, 4 females, age 20-34 years, body mass index 20.3-27.0 kg/ m^2). All subjects were in good health as confirmed by medical histories, physical examination, routine clinical-chemical and hematologic screenings and 12-lead ECG. Three female subjects took hormonal contraceptives regularly and one subject took 300 mg ibuprofen to treat headache 4 days before the administration of study medication. Three subjects were smokers of less than 10 cigarettes per day. 14 subjects drank alcohol occasionally. All were negative in the pre-study screenings for alcohol, drugs, hepatitis-B-virus (HBV) and hepatitis-C-virus (HCV) and human immunodeficiency virus (HIV). Before administration of the study medication, female subjects were screened to be not pregnant and to apply a safe method of contraception. […] All participants provided informed written consent before inclusion into the study. The study was approved by the Independent Ethics Committee of the University Medicine Greifswald and by the German Federal Institute for Drugs and Medical Devices (BfArM) and was registered by EudraCT (2009-014357-32) and ClinicalTrials.gov (NCT01596777).
as §1
For supervised pretreatment with loperamide and Colon Transit™ (mouth checking) and for providing stool samples, the subjects visited the study unit. […]

[3] = tested on: loperamide-induced experimental constipation; test: Whole gut transit time (WGT), radio-opaque marker method, loperamide-induced experimental constipation; format: in vivo, human
Experimental: as §2, with “All” for “The clinical study was performed in 15 German white subjects (11 males, 4 females, age 20-34 years, body mass index 20.3-27.0 kg/ m^2). All”, “study.” for “study. The study was approved by the Independent Ethics Committee of the University Medicine Greifswald and by the German Federal Institute for Drugs and Medical Devices (BfArM) and was registered by EudraCT (2009-014357-32) and ClinicalTrials.gov (NCT01596777).”
as §1, with “Our subjects were willing and compliant for sampling stool in single portions immediately after feeling urge without suppressing defecation using tightly closable containers.” left out
Intestinal transit times: Oro-cecal transit time (OCT) was defined as the time span between oral administration of sulfasalazine (500 mg immediate-release tablet) and the appearance of its metabolite sulfapyridine in serum (cut-off=100 μg/ml) which is generated in the cecum by bacterial azo-reduction. Whole-gut transit time (WGT) was assessed by counting the radio-opaque markers with different shapes (Colon Transit™) in the feces according to formula (1) : […]
with δ1-3 as derived by formula (2):
[formula] • δt =mouth to stool transit time of markers type 1, 2, 3 • xi=number of markers type 1, 2, 3 counted at time ti • n=total number of stools

[4] = cited from earlier work
[5] = 12 LOP-responders, Control versus LOP
[6] = 12 LOP-responders, Control versus LOP, range
[7] = mean ± SD, 12 LOP-responders, loperamide 4 mg 24, 12, 1 h before and 12 h after placebo capsules

## CN(C)C(=O)C(CCN1CCC(O)(c2ccc(Cl)cc2)CC1)(c1ccccc1)c1ccccc1 [LOP, loperamide hydrochloride]
[1]; [5]
  prolongation of the CTT (mean ± SD): 34.8 ± 18.3 h
[1]; [6]
  prolongation of the CTT (range): 18.3 to 73.6 h
[1]
  colon transit time after pre-treatment with loperamide: 66.0 ± 20.9 h
[1]; range
  colon transit time after pre-treatment with loperamide: 33.9 to 110 h
[1]; [7]
  CTT: 70.3 ± 19.4 h
[2]; [5]
  prolongation of the OCT (mean ± SD): 3.08 ± 3.30 h
[2]; [6]
  prolongation of the OCT (range): 0.50 to 10.5 h
[2]; all 15 subjects
  OCT after pre-treatment with loperamide (mean ± SD): 7.4 ± 3.7 h
[2]; all 15 subjects, range
  OCT after pre-treatment with loperamide (range): 4.0 to 14.0 h
[2]; [7]
  OCT: 7.00 ± 3.55 h
[3]; [5]
  WGT extended by (mean ± SD): 37.8 ± 19.1 h
[3]; [6]
  WGT extended by (range): 20.6 to 74.1 h
[3]; all 15 subjects
  WGT after pre-treatment with loperamide (mean ± SD): 73.4 ± 19.9 h
  WGT elevation versus Control: about 1.8 fold
[3]; all 15 subjects, range
  WGT after pre-treatment with loperamide (range): 45.9 to 114 h
[3]; [7]
  WGT: 77.3 ± 19.6 h

## C[N@+]1(CC2CC2)CC[C@]23c4c5ccc(O)c4O[C@H]2C(=O)CC[C@@]3(O)[C@H]1C5 [methylnaltrexone, N-methylnaltrexone bromide]
[4]; following subcutaneous administration
  time of peak concentrations: approximately 0.5 hours
[4]; in vivo
  crossing of the human blood-brain barrier: does not cross
  eliminated without being metabolised: 85 % of the administered dose
  proportion that binds to plasma proteins: 11-15%
  steady-state volume of distribution: 1.1 L/kg
  terminal half-life: about 8 hours
[4]; intravenous administration every 6 hours
  Accumulation: has not been observed
[4]; share of the dose
  excreted in urine: Approximately half of the dose

Reference: patent US20160256452A1 (Develco Pharma Schweiz AG, priority 2015, published 2016)
